The experiment has as its target Replicase polyprotein 1ab (Severe acute respiratory syndrome coronavirus 2) (UniProt P0DTD1).

By inhibition is commonly meant the change of the read-out against control, counted positive when it falls.

Description: Functional biochemical assay to identify treatments for viral infectious disease that targets SARS-COV-2 nsp3 macrodomain, whereby the mechanism of action displaces an ADP-Ribose modified peptide from the binding site. Utilizing a time-resolved fluorescence method to measure binding by reading the emitted fluorescence intensity in two wavelengths.

As to `Cc1[nH]cnc1C(=O)N1CCC(c2ccn3ncc(C(=O)N4CCCCC4)c3c2)CC1`, the inhibition is 16.4% (Concentration 49.75 uM, Number of replicates 2.0, Standard deviation 1.318 %) and 32% (Concentration 99.5 uM, Number of replicates 2.0, Standard deviation 4.675 %).

Regarding `Cc1[nH]c2ncnc(NC(=O)C3CCC(F)(F)CC3)c2c1C`, the inhibition (Concentration 50.0 uM, Number of replicates 2.0, Standard deviation 0.519 %) turned out to be 2.15%.

As to `Cn1cnc(C(=O)N(CCC(=O)N2CCNCC2)Cc2cccc(Cl)c2)n1`, the inhibition reads like this: (Concentration 49.75 uM, Number of replicates 2.0, Standard deviation 2.331 %) -1.44%; (Concentration 99.5 uM, Number of replicates 2.0, Standard deviation 4.384 %) -0.25%.

As to `CC(C)[C@@H]1C(=O)NCCN1c1ncnc2[nH]ccc12`, the inhibition is, setting by setting: (Concentration 49.75 uM, Number of replicates 2.0, Standard deviation 1.976 %) 61.4%; (Concentration 99.5 uM, Number of replicates 2.0, Standard deviation 0.754 %) 80.7%.

On to `O=C(OCC(Br)=C1CCOCC1)c1ncnc2[nH]ccc12`, for which, for the setting “Concentration 50.0 uM, Number of replicates 2.0, Standard deviation 2.217 %”, the inhibition is -5.36%.

For the compound `O=C(Nc1ccccc1)Nc1ccc(C(=O)NC2c3cccc(O)c3CC2C(=O)O)cc1` (stereo not drawn), the inhibition (Concentration 50.0 uM, Number of replicates 2.0, Standard deviation 0.256 %) was determined as 99.9%.

`O=C(Nc1ccccc1)Nc1ccc(C(=O)N[C@H]2CC[C@H](CO)CC2)cc1`: the inhibition runs as follows: (Concentration 49.75 uM, Number of replicates 2.0, Standard deviation 1.388 %) -0.639%; (Concentration 99.5 uM, Number of replicates 2.0, Standard deviation 3.79 %) -2.58%.

With `COc1ccccc1C[C@@H](Nc1ncnc2[nH]ccc12)C(C)C`, the inhibition (Concentration 49.75 uM, Number of replicates 2.0, Standard deviation 1.888 %) turned out to be 31.7% and the inhibition (Concentration 99.5 uM, Number of replicates 2.0, Standard deviation 1.108 %) was 48.5%.

Regarding `Cc1cnc(C(=O)N(CCC(=O)N2CCNCC2)Cc2cccc(Cl)c2)nc1`, the inhibition by setting is: (Concentration 49.75 uM, Number of replicates 2.0, Standard deviation 2.063 %) -1.49%; (Concentration 99.5 uM, Number of replicates 2.0, Standard deviation 9.956 %) 6.47%.

In the case of `O[C@@]1(C(F)(F)F)CCCN(c2ncnc3n[nH]cc23)CC1`, the inhibition (Concentration 50.0 uM, Number of replicates 2.0, Standard deviation 1.087 %) is -4.14%.

In the case of `Cc1nc(NC(=O)[C@@H]2CCCOC2)c2ccnc-2[nH]1`, the inhibition (Concentration 50.0 uM, Number of replicates 2.0, Standard deviation 1.269 %) was -3.2%.

For the compound `CCC[C@@](C)(NC(=O)c1ncnc2[nH]ccc12)C(=O)OC`, the inhibition (Concentration 50.0 uM, Number of replicates 2.0, Standard deviation 3.705 %) is -6.62%.

For `CC(C)n1nccc1NC(=O)c1ccc(NC(=O)Nc2ccccc2)cc1`, the inhibition runs as follows: (Concentration 49.75 uM, Number of replicates 2.0, Standard deviation 2.48 %) -2%; (Concentration 99.5 uM, Number of replicates 2.0, Standard deviation 1.778 %) -0.924%.

For the compound `OCc1cn([C@@H]2CCCN(c3ncnc4[nH]ccc34)C2)nn1`, the inhibition (Concentration 50.0 uM, Number of replicates 2.0, Standard deviation 2.708 %) was -0.682%.

As to `Cc1[nH]c2ncnc(NC(=O)c3ccncc3Cl)c2c1C`, the inhibition is, setting by setting: (Concentration 50.0 uM, Number of replicates 2.0, Standard deviation 1.372 %) 69.6%; (Concentration 100.0 uM, Number of replicates 2.0, Standard deviation 0.621 %) 85.6%.

On to `O=C(c1cccnc1S)N1CCC(c2ccn3ncc(C(=O)N4CCCCC4)c3c2)CC1`, for which the inhibition runs as follows: (Concentration 49.75 uM, Number of replicates 2.0, Standard deviation 1.032 %) 32.3%; (Concentration 99.5 uM, Number of replicates 2.0, Standard deviation 1.028 %) 52.6%.

In the case of `Cc1ccc(C(=O)N(CCC(=O)N2CCNCC2)Cc2cccc(Cl)c2)[nH]1`, the inhibition (Concentration 49.75 uM, Number of replicates 2.0, Standard deviation 5.038 %) is -5.9% and the inhibition (Concentration 99.5 uM, Number of replicates 2.0, Standard deviation 2.609 %) was -3.94%.

With `c1ccc(Cn2ncc3c2CCC[C@@H]3Nc2ncnc3[nH]ccc23)cc1`, where the note is “Concentration 50.0 uM, Number of replicates 2.0, Standard deviation 3.356 %”, the inhibition is 5.85%.

For `CN(Cc1cn(C)nn1)C(=O)c1cnn2ccc(C3CCN(C(=O)c4ccccc4)CC3)cc12`, the inhibition (Concentration 49.75 uM, Number of replicates 2.0, Standard deviation 4.768 %) was 2.17% and the inhibition (Concentration 99.5 uM, Number of replicates 2.0, Standard deviation 1.859 %) stood at 1.34%.

Take `O=C(c1ccccc1)N1CCC(c2ccn3ncc(C(=O)N4CCc5cccnc54)c3c2)CC1`: the inhibition is, setting by setting: (Concentration 49.75 uM, Number of replicates 2.0, Standard deviation 3.564 %) -4.67%; (Concentration 99.5 uM, Number of replicates 2.0, Standard deviation 0.208 %) -8.02%.

For the compound `CNC[C@@H]1CCCN1C(=O)c1cnn2ccc(C3CCN(C(=O)c4ccccc4)CC3)cc12`, the inhibition by setting is: (Concentration 49.75 uM, Number of replicates 2.0, Standard deviation 1.186 %) -1.47%; (Concentration 99.5 uM, Number of replicates 2.0, Standard deviation 2.864 %) -2.2%.

For the compound `O=C(O)[C@H]1CCCCCN1C(=O)c1ncnc2[nH]ccc12`, the inhibition (Concentration 50.0 uM, Number of replicates 2.0, Standard deviation 6.117 %) is 11.8%.

In the case of `O=C(N[C@@H]1COCC[C@H]1O)c1cnn2ccc(C3CCN(C(=O)c4ccccc4)CC3)cc12`, the inhibition was -5.01% (Concentration 49.75 uM, Number of replicates 2.0, Standard deviation 1.335 %) and -4.48% (Concentration 99.5 uM, Number of replicates 2.0, Standard deviation 2.833 %).

In the case of `Cc1cccc(OCCNc2ncnc3nc[nH]c23)c1`, under “Concentration 50.0 uM, Number of replicates 2.0, Standard deviation 4.697 %”, the inhibition came out at 3.91%.

Regarding `Cn1nc(C(=O)N2CCC(c3ccn4ncc(C(=O)N5CCCCC5)c4c3)CC2)cc1C(=O)O`, the inhibition by setting is: (Concentration 49.75 uM, Number of replicates 2.0, Standard deviation 1.938 %) 42.7%; (Concentration 99.5 uM, Number of replicates 2.0, Standard deviation 2.395 %) 59.7%.

Consider `O=C(Nc1ccccc1)Nc1ccc(C(=O)N2CCn3nccc3C2)cc1`, for which the inhibition runs as follows: (Concentration 49.75 uM, Number of replicates 2.0, Standard deviation 2.554 %) -3.11%; (Concentration 99.5 uM, Number of replicates 2.0, Standard deviation 2.469 %) 2.3%.

On to `CCn1cc(CNc2nc3[nH]cnc3c(=O)[nH]2)nn1`, for which, for the setting “Concentration 50.0 uM, Number of replicates 2.0, Standard deviation 3.758 %”, the inhibition is -0.991%.

Take `Cc1cc(C(=O)N2CCC(c3ccn4ncc(C(=O)N5CCCCC5)c4c3)CC2)[nH]n1`: the inhibition is, setting by setting: (Concentration 49.75 uM, Number of replicates 2.0, Standard deviation 4.639 %) 16.6%; (Concentration 99.5 uM, Number of replicates 2.0, Standard deviation 3.947 %) 31.6%.

In the case of `O=C(CCN(Cc1cccc(Cl)c1)C(=O)[C@@H]1CNCC12CC2)N1CCNCC1`, the inhibition (Concentration 49.75 uM, Number of replicates 2.0, Standard deviation 4.003 %) is 4.21% and the inhibition (Concentration 99.5 uM, Number of replicates 2.0, Standard deviation 2.443 %) is 2.38%.

For `O=C(Nc1ccccc1)Nc1ccc(C(=O)NCc2ccnc(F)c2)cc1`, the inhibition (Concentration 49.75 uM, Number of replicates 2.0, Standard deviation 0.77 %) is -0.36% and the inhibition (Concentration 99.5 uM, Number of replicates 2.0, Standard deviation 1.377 %) came out at 4.92%.

For `C[C@@H](NC(=O)c1ncnc2[nH]ccc12)c1ncc(C(=O)O)c(=O)[nH]1`, the inhibition by setting is: (Concentration 49.75 uM, Number of replicates 2.0, Standard deviation 2.226 %) 4.87%; (Concentration 99.5 uM, Number of replicates 2.0, Standard deviation 1.623 %) 10.7%.

Turning to `COC(=O)[C@]1(F)CCN(C(=O)c2ccc(NC(=O)Nc3ccccc3)cc2)C1`, the inhibition is -0.893% (Concentration 49.75 uM, Number of replicates 2.0, Standard deviation 1.195 %) and 0.834% (Concentration 99.5 uM, Number of replicates 2.0, Standard deviation 2.11 %).

As to `CN(C(=O)c1cnn2ccc(C3CCN(C(=O)c4ccccc4)CC3)cc12)c1ccccc1O`, the inhibition amounted to 10% (Concentration 49.75 uM, Number of replicates 2.0, Standard deviation 2.649 %) and 15.9% (Concentration 99.5 uM, Number of replicates 2.0, Standard deviation 4.361 %).

As to `O=S(=O)(NC[C@@H]1CCCCO1)c1cn2c(n1)CCCC2`, the inhibition (Concentration 50.0 uM, Number of replicates 2.0, Standard deviation 0.892 %) is -5.39%.

As to `O=C(OCc1ncccc1Cl)c1ncnc2[nH]ccc12`, where the note is “Concentration 50.0 uM, Number of replicates 2.0, Standard deviation 2.408 %”, the inhibition stood at 5.06%.

Regarding `C[C@H](NC(=O)c1ccc(NC(=O)Nc2ccccc2)cc1)c1ccccn1`, the inhibition runs as follows: (Concentration 49.75 uM, Number of replicates 2.0, Standard deviation 2.561 %) 2.45%; (Concentration 99.5 uM, Number of replicates 2.0, Standard deviation 6.365 %) 0.349%.

With `COC(=O)c1cc2c(Oc3ccccc3C#N)ncnc2[nH]1`, the inhibition (Concentration 50.0 uM, Number of replicates 2.0, Standard deviation 0.741 %) came out at 2.92%.

As for `Clc1cnc(N2CCN(c3ncnc4[nH]ccc34)CC2)c(Cl)c1`, the inhibition was -2% (Concentration 50.0 uM, Number of replicates 2.0, Standard deviation 0.674 %) and -6.57% (Concentration 100.0 uM, Number of replicates 2.0, Standard deviation 2.989 %).

With `O=C(N[C@@H](C(=O)O)[C@@H](O)Cc1ccccc1)c1ncnc2[nH]ccc12`, the inhibition came to 3.79% (Concentration 49.75 uM, Number of replicates 2.0, Standard deviation 1.324 %) and 12.3% (Concentration 99.5 uM, Number of replicates 2.0, Standard deviation 4.676 %).

On to `Cc1[nH]c2ncnc(NCc3ccco3)c2c1C`, for which the inhibition came to 17% (Concentration 50.0 uM, Number of replicates 2.0, Standard deviation 0.505 %) and 37.5% (Concentration 100.0 uM, Number of replicates 2.0, Standard deviation 0.323 %).

With `CCN1CCN(C(=O)c2cnn3ccc(C4CCN(C(=O)c5ccccc5)CC4)cc23)CC1=O`, the inhibition was -8.63% (Concentration 49.75 uM, Number of replicates 2.0, Standard deviation 2.605 %) and -3.46% (Concentration 99.5 uM, Number of replicates 2.0, Standard deviation 4.496 %).

With `Cn1nc(NCc2cc3c(=O)[nH]ccc3o2)c2nccnc21`, under “Concentration 50.0 uM, Number of replicates 2.0, Standard deviation 1.985 %”, the inhibition was -1.01%.

For the compound `O=C(NCCn1cncn1)c1cnn2ccc(C3CCN(C(=O)c4ccccc4)CC3)cc12`, the inhibition by setting is: (Concentration 49.75 uM, Number of replicates 2.0, Standard deviation 1.365 %) -3.7%; (Concentration 99.5 uM, Number of replicates 2.0, Standard deviation 1.7 %) -2.57%.

On to `O=C(CCN(Cc1cccc(Cl)c1)C(=O)c1ccc(O)cc1)N1CCNCC1`, for which the inhibition by setting is: (Concentration 49.75 uM, Number of replicates 2.0, Standard deviation 5.17 %) -0.343%; (Concentration 99.5 uM, Number of replicates 2.0, Standard deviation 10.002 %) -1.63%.

Values taken from ChEMBL document CHEMBL5442379, “ASAP - SARS-CoV-2 nsp3 macrodomain single point” (2024).
